Source: patent US7385063B2, “Method for preparing imidazole derivatives” (Chugai Seiyaku Kabushiki Kaisha, priority 2001, dated 2008)

How the values were obtained:
[1] = molecular target: T1, malonyl-CoA decarboxylase prepared from rat heart (Rattus norvegicus, UniProt Q920F5); assay: In vitro MCD inhibitory assay (spectrophotometric, 96 well); type: biochemical; conditions: concentration causing 50% inhibition of MCD activity, read-out: IC50 of the MCD inhibitors
T1 construct: malonyl-CoA decarboxylase prepared from rat heart; from tissue; host or cells: rat heart
T1 sequence (Q920F5 39-492): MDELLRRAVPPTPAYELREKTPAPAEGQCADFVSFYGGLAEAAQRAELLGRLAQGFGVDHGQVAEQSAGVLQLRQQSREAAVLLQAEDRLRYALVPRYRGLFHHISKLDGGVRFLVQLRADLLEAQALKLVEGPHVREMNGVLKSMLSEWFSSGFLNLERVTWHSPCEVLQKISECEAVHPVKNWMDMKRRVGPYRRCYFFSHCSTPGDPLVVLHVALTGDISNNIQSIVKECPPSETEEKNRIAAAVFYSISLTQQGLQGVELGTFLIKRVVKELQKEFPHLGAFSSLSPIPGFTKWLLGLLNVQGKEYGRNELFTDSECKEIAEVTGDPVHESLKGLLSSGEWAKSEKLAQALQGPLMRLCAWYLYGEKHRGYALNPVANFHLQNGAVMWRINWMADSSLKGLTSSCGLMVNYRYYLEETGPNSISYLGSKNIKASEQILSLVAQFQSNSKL
Method: The following reagents are added into a 96 well titer plate: Tris-HCl buffer, 20 μL; DTE, 10 μL; I-malate, 20 μL; NAD, 10 μL; NADH, 25 μL; water, 80 μL; malic dehydrogenase, 5 μL. The contents are mixed and incubated for 2 min followed by the addition of 5 μL of citrate synthase.

[2] = system: human breast cancer cells; conditions: breast carcinoma cells; Pizer et al.; cited from earlier work

IC50 [1]	Structure (SMILES)	also measured
10 nM	O=C(N1CCOCC1)N(CCCCc1nnn[nH]1)c1ccc(C(O)(C(F)(F)F)C(F)(F)F)cc1 [Example 4-114]	–
–	O=C(NCc1ccccc1)Nc1ccc(C(O)(C(F)(F)F)C(F)(F)F)cc1 [Example 3, N-benzyl-N′-{4-[2,2,2-trifluoro-1-hydroxy-1-(trifluoromethyl)ethyl]phenyl}urea]	melting point: 163 to 164 °C (dec.)
604 nM	O=S(=O)(Nc1ccc(C(O)(C(F)(F)F)C(F)(F)F)cc1)N1CCCCC1 [Example 2-5]	–
36 nM	O=C(N1CCOCC1)N(CCCF)c1ccc(C(O)(C(F)(F)F)C(F)(F)F)cc1 [Example 4-130]	–
7 nM	O=C(O)CCCCN(C(=O)c1ccncc1)c1ccc(C(O)(C(F)(F)F)C(F)(F)F)cc1 [Example 1-3]	–
557 nM	OC(c1ccc(-n2nc(-c3ccccn3)cc2-c2ccccn2)cc1)(C(F)(F)F)C(F)(F)F [Example 8-4]	–
9 nM	CCN(CCC#N)C(=O)N(CCCCC(=O)O)c1ccc(C(O)(C(F)(F)F)C(F)(F)F)cc1 [Example 4-94]	–
223 nM	Cc1cc(-c2ccncc2)n(-c2ccc(C(O)(C(F)(F)F)C(F)(F)F)cc2)n1 [Example 8-28]	–
18 nM	N#Cc1cccc(CS(=O)(=O)c2nccn2-c2ccc(C(O)(C(F)(F)F)C(F)(F)F)cc2)c1 [Example 6-1]	–
–	CCCCCCCCCCCCCCOc1ccc(C(=O)O)o1 [TOFA, 5-(tetradecyloxy)-2-furoic acid]	malonyl-CoA level, of the control [2]: 60%
